Data taken from the kinase profiling compilation of Christmann-Franck et al. (2016).

Legend:
Assay in all cases: KINOMEscan competition binding
Conditions in all cases: compound 10.0 µM
CIT (human) = CIT (human) (UniProt O14578)
ACVR1B (human) = ACVR1B (human) (UniProt P36896)
FYN (human) = FYN (human) (UniProt P06241)
MAP4K1 (human) = MAP4K1 (human) (UniProt Q92918)
PRKX (human) = PRKX (human) (UniProt P51817)
[1] = tested on: EGFR (human), P00533 [L858R]
PAK4 (human) = PAK4 (human) (UniProt O96013)
FGFR1 (human) = FGFR1 (human) (UniProt P11362)
ACVR1 (human) = ACVR1 (human) (UniProt Q04771)
HUNK (human) = HUNK (human) (UniProt P57058)
AXL (human) = AXL (human) (UniProt P30530)
PIP4K2B (human) = PIP4K2B (human) (UniProt P78356)
DMPK (human) = DMPK (human) (UniProt Q09013)
PRKACA (human) = PRKACA (human) (UniProt P17612)
PRKCQ (human) = PRKCQ (human) (UniProt Q04759)
TYRO3 (human) = TYRO3 (human) (UniProt Q06418)
MYLK3 (human) = MYLK3 (human) (UniProt Q32MK0)
RPS6KA5 KD1 (human) = RPS6KA5 KD1 (human) (UniProt O75582)
TXK (human) = TXK (human) (UniProt P42681)
PHKG1 (human) = PHKG1 (human) (UniProt Q16816)
MAPKAPK2 (human) = MAPKAPK2 (human) (UniProt P49137)
ACVR2A (human) = ACVR2A (human) (UniProt P27037)
PRKAA2 (human) = PRKAA2 (human) (UniProt P54646)
SRMS (human) = SRMS (human) (UniProt Q9H3Y6)
GRK1 (human) = GRK1 (human) (UniProt Q15835)
IKBKE (human) = IKBKE (human) (UniProt Q14164)
RPS6KA1 KD1 (human) = RPS6KA1 KD1 (human) (UniProt Q15418)
PRKD1 (human) = PRKD1 (human) (UniProt Q15139)
BMPR2 (human) = BMPR2 (human) (UniProt Q13873)
AKT2 (human) = AKT2 (human) (UniProt P31751)
MAP3K13 (human) = MAP3K13 (human) (UniProt O43283)
CDK7 (human) = CDK7 (human) (UniProt P50613)
DYRK1A (human) = DYRK1A (human) (UniProt Q13627)
SRPK1 (human) = SRPK1 (human) (UniProt Q96SB4)
FGR (human) = FGR (human) (UniProt P09769)
[2] = molecular target: JAK1 JH1 catalytic (human) (UniProt P23458)
EPHA4 (human) = EPHA4 (human) (UniProt P54764)

Chain of FYN (human) (P06241 whole entry, looked up): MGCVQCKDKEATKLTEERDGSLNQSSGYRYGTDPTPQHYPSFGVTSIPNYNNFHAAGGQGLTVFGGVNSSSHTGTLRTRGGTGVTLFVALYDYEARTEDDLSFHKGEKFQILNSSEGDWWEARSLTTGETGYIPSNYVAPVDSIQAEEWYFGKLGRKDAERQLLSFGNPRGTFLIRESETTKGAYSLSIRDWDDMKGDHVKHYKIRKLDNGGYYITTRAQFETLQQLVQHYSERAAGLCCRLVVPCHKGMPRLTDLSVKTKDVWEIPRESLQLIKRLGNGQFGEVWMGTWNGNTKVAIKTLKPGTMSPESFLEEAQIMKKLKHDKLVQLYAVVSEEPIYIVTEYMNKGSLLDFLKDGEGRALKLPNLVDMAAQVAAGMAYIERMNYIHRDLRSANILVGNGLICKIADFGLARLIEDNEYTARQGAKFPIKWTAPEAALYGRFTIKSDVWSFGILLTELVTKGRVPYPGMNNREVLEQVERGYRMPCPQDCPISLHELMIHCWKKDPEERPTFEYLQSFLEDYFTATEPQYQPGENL
Chain of PRKX (human) (P51817 whole entry, looked up): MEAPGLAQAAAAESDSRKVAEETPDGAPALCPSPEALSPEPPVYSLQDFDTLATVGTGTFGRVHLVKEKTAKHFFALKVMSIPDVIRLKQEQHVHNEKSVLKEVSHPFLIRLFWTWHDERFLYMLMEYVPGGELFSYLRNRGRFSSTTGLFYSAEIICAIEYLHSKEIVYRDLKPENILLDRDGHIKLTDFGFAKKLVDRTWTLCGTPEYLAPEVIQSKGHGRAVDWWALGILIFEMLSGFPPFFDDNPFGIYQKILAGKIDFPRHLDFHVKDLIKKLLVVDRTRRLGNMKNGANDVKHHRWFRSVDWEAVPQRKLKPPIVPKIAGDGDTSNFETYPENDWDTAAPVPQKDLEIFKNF
Chain of ACVR1 (human) (Q04771 whole entry, looked up): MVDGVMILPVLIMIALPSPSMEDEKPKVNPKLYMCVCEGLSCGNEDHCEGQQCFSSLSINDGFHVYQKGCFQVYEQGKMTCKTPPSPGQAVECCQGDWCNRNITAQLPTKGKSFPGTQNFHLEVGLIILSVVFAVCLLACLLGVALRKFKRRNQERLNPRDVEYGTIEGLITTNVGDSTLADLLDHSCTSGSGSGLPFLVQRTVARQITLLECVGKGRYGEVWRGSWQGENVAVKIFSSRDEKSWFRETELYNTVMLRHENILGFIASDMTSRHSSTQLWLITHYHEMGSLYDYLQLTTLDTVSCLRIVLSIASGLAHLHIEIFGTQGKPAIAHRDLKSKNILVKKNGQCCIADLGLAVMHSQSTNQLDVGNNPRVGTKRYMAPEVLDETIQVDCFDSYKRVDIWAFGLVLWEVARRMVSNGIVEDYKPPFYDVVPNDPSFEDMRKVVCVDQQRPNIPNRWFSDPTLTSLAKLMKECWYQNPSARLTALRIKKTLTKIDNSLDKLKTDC
Chain of SRPK1 (human) (Q96SB4 whole entry, looked up): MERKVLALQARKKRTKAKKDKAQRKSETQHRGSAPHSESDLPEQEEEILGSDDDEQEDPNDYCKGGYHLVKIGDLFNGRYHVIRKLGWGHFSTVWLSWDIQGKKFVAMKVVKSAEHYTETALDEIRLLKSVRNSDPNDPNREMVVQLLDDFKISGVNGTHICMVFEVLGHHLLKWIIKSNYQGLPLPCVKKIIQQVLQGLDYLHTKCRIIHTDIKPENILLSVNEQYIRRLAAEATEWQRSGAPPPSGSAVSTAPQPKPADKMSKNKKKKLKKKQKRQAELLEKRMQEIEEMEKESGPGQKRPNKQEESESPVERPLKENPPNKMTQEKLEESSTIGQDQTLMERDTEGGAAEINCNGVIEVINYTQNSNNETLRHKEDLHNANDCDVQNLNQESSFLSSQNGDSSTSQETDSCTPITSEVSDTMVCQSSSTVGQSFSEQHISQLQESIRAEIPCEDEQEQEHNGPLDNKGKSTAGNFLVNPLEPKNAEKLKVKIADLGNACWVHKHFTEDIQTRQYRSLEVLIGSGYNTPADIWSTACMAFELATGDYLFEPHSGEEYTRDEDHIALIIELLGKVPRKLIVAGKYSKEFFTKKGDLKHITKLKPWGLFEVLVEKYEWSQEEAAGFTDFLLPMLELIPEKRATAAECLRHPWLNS
Chain of JAK1 JH1 catalytic (human) (P23458 whole entry, looked up): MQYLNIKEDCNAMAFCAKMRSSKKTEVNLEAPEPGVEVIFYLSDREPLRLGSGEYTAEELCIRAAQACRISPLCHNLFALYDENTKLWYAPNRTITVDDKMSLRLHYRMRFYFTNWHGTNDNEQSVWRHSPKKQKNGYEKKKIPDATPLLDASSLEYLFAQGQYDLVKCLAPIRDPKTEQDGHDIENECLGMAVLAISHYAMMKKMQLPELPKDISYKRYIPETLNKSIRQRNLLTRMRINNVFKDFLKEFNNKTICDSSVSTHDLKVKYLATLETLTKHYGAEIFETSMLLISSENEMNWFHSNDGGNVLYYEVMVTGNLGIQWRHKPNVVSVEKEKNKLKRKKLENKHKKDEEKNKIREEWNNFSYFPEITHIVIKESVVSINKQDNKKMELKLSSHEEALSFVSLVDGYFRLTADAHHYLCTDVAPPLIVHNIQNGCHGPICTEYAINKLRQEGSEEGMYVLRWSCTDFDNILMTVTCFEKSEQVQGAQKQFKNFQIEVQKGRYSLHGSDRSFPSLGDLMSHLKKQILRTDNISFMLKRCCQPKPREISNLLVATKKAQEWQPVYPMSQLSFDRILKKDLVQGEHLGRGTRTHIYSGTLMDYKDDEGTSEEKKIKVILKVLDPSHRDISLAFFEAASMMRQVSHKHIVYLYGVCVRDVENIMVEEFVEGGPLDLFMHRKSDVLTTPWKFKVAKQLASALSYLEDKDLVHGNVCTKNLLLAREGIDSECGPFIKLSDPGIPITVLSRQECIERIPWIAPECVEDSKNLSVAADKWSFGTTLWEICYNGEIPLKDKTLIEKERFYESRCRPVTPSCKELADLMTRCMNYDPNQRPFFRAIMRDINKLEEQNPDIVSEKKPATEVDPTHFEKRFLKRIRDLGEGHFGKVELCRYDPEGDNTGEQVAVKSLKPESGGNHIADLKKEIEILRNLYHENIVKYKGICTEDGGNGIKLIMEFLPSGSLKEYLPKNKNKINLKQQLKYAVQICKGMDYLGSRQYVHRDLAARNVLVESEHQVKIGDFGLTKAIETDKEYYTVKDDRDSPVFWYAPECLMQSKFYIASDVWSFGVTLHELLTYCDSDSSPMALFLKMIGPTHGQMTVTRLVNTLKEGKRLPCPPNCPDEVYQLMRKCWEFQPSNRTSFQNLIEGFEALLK
Chain of SRMS (human) (Q9H3Y6 whole entry, looked up): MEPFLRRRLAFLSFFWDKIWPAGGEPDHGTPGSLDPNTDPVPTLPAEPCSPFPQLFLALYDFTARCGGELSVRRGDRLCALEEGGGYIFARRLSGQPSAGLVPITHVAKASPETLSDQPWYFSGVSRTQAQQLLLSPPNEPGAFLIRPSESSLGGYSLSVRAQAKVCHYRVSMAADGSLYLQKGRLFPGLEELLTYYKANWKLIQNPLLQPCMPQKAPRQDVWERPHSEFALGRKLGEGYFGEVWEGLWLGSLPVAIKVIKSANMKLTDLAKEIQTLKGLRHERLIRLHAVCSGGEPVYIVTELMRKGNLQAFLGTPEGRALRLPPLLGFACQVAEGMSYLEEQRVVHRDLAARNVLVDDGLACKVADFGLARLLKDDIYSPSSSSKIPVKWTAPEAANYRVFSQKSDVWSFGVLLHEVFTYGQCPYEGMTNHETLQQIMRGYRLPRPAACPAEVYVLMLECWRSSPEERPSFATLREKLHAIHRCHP
Chain of PRKCQ (human) (Q04759 whole entry, looked up): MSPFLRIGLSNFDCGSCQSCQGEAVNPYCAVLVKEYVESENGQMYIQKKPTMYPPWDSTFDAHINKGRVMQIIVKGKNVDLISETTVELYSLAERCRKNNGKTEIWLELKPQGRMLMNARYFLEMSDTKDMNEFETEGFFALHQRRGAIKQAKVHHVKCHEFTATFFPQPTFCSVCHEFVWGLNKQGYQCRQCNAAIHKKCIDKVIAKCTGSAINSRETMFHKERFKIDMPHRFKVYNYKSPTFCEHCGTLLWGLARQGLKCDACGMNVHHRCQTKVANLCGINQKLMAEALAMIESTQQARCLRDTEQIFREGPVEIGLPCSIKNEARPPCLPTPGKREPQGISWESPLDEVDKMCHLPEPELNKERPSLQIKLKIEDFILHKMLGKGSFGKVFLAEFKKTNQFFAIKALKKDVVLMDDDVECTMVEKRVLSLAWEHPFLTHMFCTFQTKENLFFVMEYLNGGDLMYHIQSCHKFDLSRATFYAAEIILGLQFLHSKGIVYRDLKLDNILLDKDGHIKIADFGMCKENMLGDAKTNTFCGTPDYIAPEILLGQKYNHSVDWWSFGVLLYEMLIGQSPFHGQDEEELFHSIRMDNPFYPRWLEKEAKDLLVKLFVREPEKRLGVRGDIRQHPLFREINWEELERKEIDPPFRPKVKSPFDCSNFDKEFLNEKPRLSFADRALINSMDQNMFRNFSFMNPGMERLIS
Chain of PIP4K2B (human) (P78356 whole entry, looked up): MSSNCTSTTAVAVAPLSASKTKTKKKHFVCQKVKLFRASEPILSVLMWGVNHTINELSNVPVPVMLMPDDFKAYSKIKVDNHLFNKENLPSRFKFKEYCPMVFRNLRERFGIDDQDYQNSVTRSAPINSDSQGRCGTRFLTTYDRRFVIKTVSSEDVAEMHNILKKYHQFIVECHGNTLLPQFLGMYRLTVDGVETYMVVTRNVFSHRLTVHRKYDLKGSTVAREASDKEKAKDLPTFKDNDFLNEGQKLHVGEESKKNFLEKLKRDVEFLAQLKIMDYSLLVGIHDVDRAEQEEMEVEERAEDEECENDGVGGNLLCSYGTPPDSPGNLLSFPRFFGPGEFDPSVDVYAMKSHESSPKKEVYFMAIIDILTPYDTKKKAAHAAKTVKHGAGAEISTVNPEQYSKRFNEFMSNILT

Row | SMILES | kinase still bound, per cent of control (CIT (human)) | kinase still bound, per cent of control (ACVR1B (human)) | kinase still bound, per cent of control (FYN (human)) | kinase still bound, per cent of control (MAP4K1 (human)) | kinase still bound, per cent of control (PRKX (human)) | kinase still bound, per cent of control [1] | kinase still bound, per cent of control (PAK4 (human)) | kinase still bound, per cent of control (FGFR1 (human)) | kinase still bound, per cent of control (ACVR1 (human)) | kinase still bound, per cent of control (AXL (human)) | kinase still bound, per cent of control (PIP4K2B (human)) | kinase still bound, per cent of control (DMPK (human)) | kinase still bound, per cent of control (PRKACA (human)) | kinase still bound, per cent of control (PRKCQ (human)) | kinase still bound, per cent of control (TYRO3 (human)) | kinase still bound, per cent of control (MYLK3 (human)) | kinase still bound, per cent of control (RPS6KA5 KD1 (human)) | kinase still bound, per cent of control (TXK (human)) | kinase still bound, per cent of control (PHKG1 (human)) | kinase still bound, per cent of control (MAPKAPK2 (human)) | also measured
1 | Cc1cn(-c2cc(C(=O)Nc3ccc(C)c(NC(=O)c4ccno4)c3)cc(C(F)(F)F)c2)cn1 | 31% | 100% | 9.6% | 100% | 100% | 100% | 100% | 100% | 100% | 100% | 100% | 100% | 100% | 100% | 100% | 100% | 100% | 12% | 100% | 100% | kinase still bound, per cent of control (HUNK (human)): 100%; kinase still bound, per cent of control (ACVR2A (human)): 100%; kinase still bound, per cent of control (PRKAA2 (human)): 100%; kinase still bound, per cent of control (SRMS (human)): 26%; kinase still bound, per cent of control (GRK1 (human)): 100%; kinase still bound, per cent of control (IKBKE (human)): 100%; kinase still bound, per cent of control (RPS6KA1 KD1 (human)): 100%; kinase still bound, per cent of control (PRKD1 (human)): 100%; kinase still bound, per cent of control (BMPR2 (human)): 100%; kinase still bound, per cent of control (AKT2 (human)): 100%; kinase still bound, per cent of control (MAP3K13 (human)): 100%; kinase still bound, per cent of control (CDK7 (human)): 100%; kinase still bound, per cent of control (DYRK1A (human)): 100%; kinase still bound, per cent of control (SRPK1 (human)): 100%; kinase still bound, per cent of control (FGR (human)): 23%; kinase still bound, per cent of control [2]: 100%; kinase still bound, per cent of control (EPHA4 (human)): 4%
2 | CCOc1cc(N2CCC(O)CC2)ccc1Nc1ncc2c(n1)N(C)c1ccccc1C(=O)N2C | 100% | 100% | 100% | 100% | 100% | 100% | 100% | 100% | 100% | 100% | 100% | 100% | 100% | 100% | 100% | 100% | 100% | 100% | 100% | 100% | kinase still bound, per cent of control (HUNK (human)): 100%; kinase still bound, per cent of control (ACVR2A (human)): 100%; kinase still bound, per cent of control (PRKAA2 (human)): 100%; kinase still bound, per cent of control (SRMS (human)): 100%; kinase still bound, per cent of control (GRK1 (human)): 100%; kinase still bound, per cent of control (IKBKE (human)): 100%; kinase still bound, per cent of control (RPS6KA1 KD1 (human)): 100%; kinase still bound, per cent of control (PRKD1 (human)): 100%; kinase still bound, per cent of control (BMPR2 (human)): 100%; kinase still bound, per cent of control (AKT2 (human)): 100%; kinase still bound, per cent of control (MAP3K13 (human)): 100%; kinase still bound, per cent of control (CDK7 (human)): 100%; kinase still bound, per cent of control (DYRK1A (human)): 100%; kinase still bound, per cent of control (SRPK1 (human)): 100%; kinase still bound, per cent of control (FGR (human)): 100%; kinase still bound, per cent of control [2]: 100%; kinase still bound, per cent of control (EPHA4 (human)): 100%
3 | COc1cc(N2CCC(C(N)=O)CC2)ccc1Nc1nc(N)c(Cl)c(Nc2ccccc2S(=O)(=O)C(C)C)n1 | 100% | 100% | 100% | 100% | 100% | 0.3% | 100% | 100% | 100% | 8.6% | 100% | 100% | 100% | 100% | 100% | 100% | 100% | 100% | 12% | 100% | kinase still bound, per cent of control (ACVR2A (human)): 100%; kinase still bound, per cent of control (PRKAA2 (human)): 100%; kinase still bound, per cent of control (SRMS (human)): 7.3%; kinase still bound, per cent of control (IKBKE (human)): 100%; kinase still bound, per cent of control (RPS6KA1 KD1 (human)): 100%; kinase still bound, per cent of control (PRKD1 (human)): 100%; kinase still bound, per cent of control (BMPR2 (human)): 100%; kinase still bound, per cent of control (AKT2 (human)): 100%; kinase still bound, per cent of control (CDK7 (human)): 100%; kinase still bound, per cent of control (SRPK1 (human)): 100%; kinase still bound, per cent of control (FGR (human)): 100%; kinase still bound, per cent of control [2]: 100%; kinase still bound, per cent of control (EPHA4 (human)): 100%
